Values of other authors, collected in patent US20200078333A1, “Healthier Aging in Domesticated Animals” (priority 2016, published 2020).
Values belong to the molecule of their own block, whether it stands above or below them.

Key:
[1] = target: human CB1 cannabinoid receptors (Homo sapiens, UniProt P21554); conditions: selective binding; function as antagonists/inverse agonists
CB2 [2] = target: T1, CB2 (Homo sapiens, UniProt P34972)
CB1 [3] = target: T2, CB1 (Homo sapiens, UniProt P21554); conditions: Ca2+ flux induced by AEA
T2 sequence (P21554 whole entry, species assumed): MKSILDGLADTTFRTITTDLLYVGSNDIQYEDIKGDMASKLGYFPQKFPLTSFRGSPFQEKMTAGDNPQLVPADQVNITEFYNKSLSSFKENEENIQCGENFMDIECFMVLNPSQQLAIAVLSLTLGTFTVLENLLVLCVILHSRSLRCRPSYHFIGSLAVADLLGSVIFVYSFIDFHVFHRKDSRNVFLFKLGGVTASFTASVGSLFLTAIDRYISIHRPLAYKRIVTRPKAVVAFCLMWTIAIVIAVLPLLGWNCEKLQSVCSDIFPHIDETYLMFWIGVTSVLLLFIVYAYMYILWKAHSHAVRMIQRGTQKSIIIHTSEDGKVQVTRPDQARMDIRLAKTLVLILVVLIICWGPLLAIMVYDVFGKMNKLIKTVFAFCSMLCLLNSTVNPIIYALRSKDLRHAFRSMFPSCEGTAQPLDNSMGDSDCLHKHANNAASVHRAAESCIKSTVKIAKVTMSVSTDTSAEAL

[4] = healthy as well as unhealthy persons
CB1 [5] = target: T2, CB1; conditions: read-out: binding affinity to CB1
CB2 [6] = target: T1, CB2; remark: listed apart in the source
[7] = system: nitric oxide (NO) production; conditions: read-out: IC50 for inhibition of NO production

T1 sequence (P34972 whole entry, species assumed): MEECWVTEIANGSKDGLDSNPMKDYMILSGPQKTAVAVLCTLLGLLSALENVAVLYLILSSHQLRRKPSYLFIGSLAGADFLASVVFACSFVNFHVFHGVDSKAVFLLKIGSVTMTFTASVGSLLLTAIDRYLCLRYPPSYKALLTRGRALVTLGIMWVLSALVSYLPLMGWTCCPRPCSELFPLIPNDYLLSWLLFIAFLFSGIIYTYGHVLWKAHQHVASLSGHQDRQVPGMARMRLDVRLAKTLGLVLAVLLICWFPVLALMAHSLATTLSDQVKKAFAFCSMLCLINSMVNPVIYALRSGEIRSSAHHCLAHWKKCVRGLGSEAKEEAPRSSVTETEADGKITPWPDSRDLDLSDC
Sequence of human CB1 cannabinoid receptors (P21554 whole entry): as the sequence (P21554 whole entry, species assumed) above

SMILES: Oc1ccc(/C=C/c2cc(O)cc(O)c2)cc1 [trans-resveratrol]
- affinity for human CB1 cannabinoid receptors [1]: nanomolar affinities

- affinity for human CB1 cannabinoid receptors [1]: nanomolar affinities
- affinity for CB2 (CB2 [2]): micromolar affinity
SMILES: COc1cc(/C=C/C(=O)CC(=O)/C=C/c2ccc(O)c(OC)c2)ccc1O [curcumin]

SMILES: CC1(C)[C@@H](O)CC[C@]2(C)[C@H]3C(=O)C=C4[C@@H]5C[C@@](C)(C(=O)O)CC[C@]5(C)CC[C@@]4(C)[C@]3(C)CC[C@@H]12 [18β-glycyrrhetinic acid]
- inhibition in responses to CB1 agonist (CB1 [3]): more than 90%

SMILES: COC1=C(OC)C(=O)C(C/C=C(\C)CC/C=C(\C)CC/C=C(\C)CC/C=C(\C)CC/C=C(\C)CC/C=C(\C)CC/C=C(\C)CC/C=C(\C)CC/C=C(\C)CCC=C(C)C)=C(C)C1=O [CoQ10, ubiquinone]
- tolerated daily dosage [4]: up to 3600 mg

SMILES: CCCCCC=CCCC=CC=CC(=O)N1CCCCC1 [1-[(2E,4E,8Z)-tetradecatrienoyl] piperidine]
- Ki (CB1 [5]): 800 nM
- CB1/CB2 affinity (CB2 selectivity) (CB2 [6]; ratio CB1/CB2): ~5
- Ki (CB2 [6]; read-out: binding affinity to CB2): 160 nM

SMILES: C=CCc1ccc(O)c(-c2cc(CC=C)ccc2O)c1 [magnolol]
- IC50 [7]: ~6.2 µM
